Laboratory results: PMC6274539, “Photoactivatable Caged Prodrugs of VEGFR-2 Kinase Inhibitors” (Molecules, 2016)

What was measured:
Test in all cases: kinase profiling, radioactive filter binding assay
Type in all cases: biochemical
AMPK = settings: 0.1 µM compound, assay duplicates
Experimental: (§1) The used method was a radioactive filter binding assay using ^33P ATP, for details see references. The substances were dissolved in DMSO at tested concentration of 0.1 µM. The mean percentage residual kinase activity and standard deviations of assay duplicates were determined. Analyses were performed by the International Center for Kinase Profiling at the University of Dundee, UK.

Aurora B = Aurora B (Homo sapiens, UniProt Q96GD4); settings: 0.1 µM compound, assay duplicates; read-out: residual activity of Aurora B, mean percentage activity
Experimental: as §1

EPH-B3 = EPH-B3 (Homo sapiens, UniProt P54753); settings: 0.1 µM compound, assay duplicates; read-out: residual activity of EPH-B3, mean percentage activity
Experimental: as §1

ERK2 = ERK2 (Homo sapiens, UniProt P28482); settings: 0.1 µM compound, assay duplicates; read-out: residual activity of ERK2, mean percentage activity
Experimental: as §1

ERK8 = ERK8 (Homo sapiens, UniProt Q8TD08); settings: 0.1 µM compound, assay duplicates; read-out: residual activity of ERK8, mean percentage activity
Experimental: as §1

GSK3b = GSK3b (Homo sapiens, UniProt P49841); settings: 0.1 µM compound, assay duplicates; read-out: residual activity of GSK3b, mean percentage activity
Experimental: as §1

HIPK2 = HIPK2 (Homo sapiens, UniProt Q9H2X6); settings: 0.1 µM compound, assay duplicates; read-out: residual activity of HIPK2, mean percentage activity
Experimental: as §1

JNK1 = JNK1 (Homo sapiens, UniProt P45983); settings: 0.1 µM compound, assay duplicates; read-out: residual activity of JNK1, mean percentage activity
Experimental: as §1

JNK2 = JNK2 (Homo sapiens, UniProt P45984); settings: 0.1 µM compound, assay duplicates; read-out: residual activity of JNK2, mean percentage activity
Experimental: as §1

Lck = Lck (Homo sapiens, UniProt P06239); settings: 0.1 µM compound, assay duplicates; read-out: residual activity of Lck, mean percentage activity
Experimental: as §1

MNK1 = MNK1 (Homo sapiens, UniProt Q9BUB5); settings: 0.1 µM compound, assay duplicates; read-out: residual activity of MNK1, mean percentage activity
Experimental: as §1

MSK1 = MSK1 (Homo sapiens, UniProt O75582); settings: 0.1 µM compound, assay duplicates; read-out: residual activity of MSK1, mean percentage activity
Experimental: as §1

MST2 = MST2 (Homo sapiens, UniProt Q13188); settings: 0.1 µM compound, assay duplicates; read-out: residual activity of MST2, mean percentage activity
Experimental: as §1

MST4 = MST4 (Homo sapiens, UniProt Q9P289); settings: 0.1 µM compound, assay duplicates; read-out: residual activity of MST4, mean percentage activity
Experimental: as §1

PAK5 = PAK5 (Homo sapiens, UniProt Q9P286); settings: 0.1 µM compound, assay duplicates; read-out: residual activity of PAK5, mean percentage activity
Experimental: as §1

PHK = settings: 0.1 µM compound, assay duplicates
Experimental: as §1

PIM2 = PIM2 (Homo sapiens, UniProt Q9P1W9); settings: 0.1 µM compound, assay duplicates; read-out: residual activity of PIM2, mean percentage activity
Experimental: as §1

PIM3 = PIM3 (Homo sapiens, UniProt Q86V86); settings: 0.1 µM compound, assay duplicates; read-out: residual activity of PIM3, mean percentage activity
Experimental: as §1

PKA = PKA (Homo sapiens, UniProt P17612); settings: 0.1 µM compound, assay duplicates; read-out: residual activity of PKA, mean percentage activity
Experimental: as §1

PKC zeta = PKC zeta (Homo sapiens, UniProt Q05513); settings: 0.1 µM compound, assay duplicates; read-out: residual activity of PKC zeta, mean percentage activity
Experimental: as §1

PKD1 = PKD1 (Homo sapiens, UniProt Q15139); settings: 0.1 µM compound, assay duplicates; read-out: residual activity of PKD1, mean percentage activity
Experimental: as §1

PLK1 = PLK1 (Homo sapiens, UniProt P53350); settings: 0.1 µM compound, assay duplicates; read-out: residual activity of PLK1, mean percentage activity
Experimental: as §1

PRAK = PRAK (Homo sapiens, UniProt Q8IW41); settings: 0.1 µM compound, assay duplicates; read-out: residual activity of PRAK, mean percentage activity
Experimental: as §1

PRK2 = PRK2 (Homo sapiens, UniProt Q16513); settings: 0.1 µM compound, assay duplicates; read-out: residual activity of PRK2, mean percentage activity
Experimental: as §1

RSK1 = RSK1 (Homo sapiens, UniProt Q15418); settings: 0.1 µM compound, assay duplicates; read-out: residual activity of RSK1, mean percentage activity
Experimental: as §1

S6K1 = S6K1 (Homo sapiens, UniProt P23443); settings: 0.1 µM compound, assay duplicates; read-out: residual activity of S6K1, mean percentage activity
Experimental: as §1

SYK = SYK (Homo sapiens, UniProt P43405); settings: 0.1 µM compound, assay duplicates; read-out: residual activity of SYK, mean percentage activity
Experimental: as §1

VEG-FR = settings: 0.1 µM compound, assay duplicates
Experimental: as §1

YES1 = YES1 (Homo sapiens, UniProt P07947); settings: 0.1 µM compound, assay duplicates; read-out: residual activity of YES1, mean percentage activity
Experimental: as §1

p38g MAPK = p38g MAPK (Homo sapiens, UniProt P53778); settings: 0.1 µM compound, assay duplicates; read-out: residual activity of p38g MAPK, mean percentage activity
Experimental: as §1

Chain of PAK5 (Q9P286 whole entry): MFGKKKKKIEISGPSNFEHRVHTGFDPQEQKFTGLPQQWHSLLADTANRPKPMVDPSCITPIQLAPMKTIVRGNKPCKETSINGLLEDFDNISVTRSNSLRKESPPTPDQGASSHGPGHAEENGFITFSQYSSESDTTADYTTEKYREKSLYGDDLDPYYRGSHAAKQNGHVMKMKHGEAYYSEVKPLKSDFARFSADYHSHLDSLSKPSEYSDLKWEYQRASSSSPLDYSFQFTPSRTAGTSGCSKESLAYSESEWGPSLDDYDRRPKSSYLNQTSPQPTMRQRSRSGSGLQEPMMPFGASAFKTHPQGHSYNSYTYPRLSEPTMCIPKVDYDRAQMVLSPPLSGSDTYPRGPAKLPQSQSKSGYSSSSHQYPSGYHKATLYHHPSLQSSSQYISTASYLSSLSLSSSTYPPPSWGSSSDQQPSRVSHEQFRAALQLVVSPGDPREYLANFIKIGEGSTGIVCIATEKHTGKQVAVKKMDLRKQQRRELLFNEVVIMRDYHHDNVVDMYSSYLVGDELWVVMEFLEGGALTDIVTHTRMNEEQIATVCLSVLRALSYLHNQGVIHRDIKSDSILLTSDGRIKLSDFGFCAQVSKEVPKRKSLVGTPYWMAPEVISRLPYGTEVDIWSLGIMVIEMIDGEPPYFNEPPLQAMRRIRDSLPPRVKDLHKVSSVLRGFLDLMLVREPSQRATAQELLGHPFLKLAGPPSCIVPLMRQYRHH
Chain of MST4 (Q9P289 whole entry): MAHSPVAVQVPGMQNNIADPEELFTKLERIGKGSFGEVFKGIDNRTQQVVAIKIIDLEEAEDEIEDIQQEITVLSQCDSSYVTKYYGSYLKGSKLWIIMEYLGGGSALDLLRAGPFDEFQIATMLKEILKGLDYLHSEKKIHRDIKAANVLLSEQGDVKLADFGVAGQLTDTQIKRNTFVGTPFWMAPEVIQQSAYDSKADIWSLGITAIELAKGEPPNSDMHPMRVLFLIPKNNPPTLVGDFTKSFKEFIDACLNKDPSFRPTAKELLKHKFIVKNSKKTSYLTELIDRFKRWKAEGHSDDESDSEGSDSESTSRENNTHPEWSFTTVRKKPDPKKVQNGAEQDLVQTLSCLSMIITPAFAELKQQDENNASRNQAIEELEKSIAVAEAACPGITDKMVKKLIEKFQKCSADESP
Chain of p38g MAPK (P53778 whole entry): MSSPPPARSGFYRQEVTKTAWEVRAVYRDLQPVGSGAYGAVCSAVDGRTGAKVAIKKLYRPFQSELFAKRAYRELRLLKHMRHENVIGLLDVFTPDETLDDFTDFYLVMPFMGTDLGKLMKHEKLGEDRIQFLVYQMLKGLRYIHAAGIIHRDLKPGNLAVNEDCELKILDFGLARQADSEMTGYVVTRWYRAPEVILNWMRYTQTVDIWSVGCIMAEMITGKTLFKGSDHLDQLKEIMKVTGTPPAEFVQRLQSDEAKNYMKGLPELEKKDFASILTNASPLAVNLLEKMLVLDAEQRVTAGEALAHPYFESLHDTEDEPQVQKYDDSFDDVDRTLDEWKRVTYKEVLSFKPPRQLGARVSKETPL
Chain of PKC zeta (Q05513 whole entry): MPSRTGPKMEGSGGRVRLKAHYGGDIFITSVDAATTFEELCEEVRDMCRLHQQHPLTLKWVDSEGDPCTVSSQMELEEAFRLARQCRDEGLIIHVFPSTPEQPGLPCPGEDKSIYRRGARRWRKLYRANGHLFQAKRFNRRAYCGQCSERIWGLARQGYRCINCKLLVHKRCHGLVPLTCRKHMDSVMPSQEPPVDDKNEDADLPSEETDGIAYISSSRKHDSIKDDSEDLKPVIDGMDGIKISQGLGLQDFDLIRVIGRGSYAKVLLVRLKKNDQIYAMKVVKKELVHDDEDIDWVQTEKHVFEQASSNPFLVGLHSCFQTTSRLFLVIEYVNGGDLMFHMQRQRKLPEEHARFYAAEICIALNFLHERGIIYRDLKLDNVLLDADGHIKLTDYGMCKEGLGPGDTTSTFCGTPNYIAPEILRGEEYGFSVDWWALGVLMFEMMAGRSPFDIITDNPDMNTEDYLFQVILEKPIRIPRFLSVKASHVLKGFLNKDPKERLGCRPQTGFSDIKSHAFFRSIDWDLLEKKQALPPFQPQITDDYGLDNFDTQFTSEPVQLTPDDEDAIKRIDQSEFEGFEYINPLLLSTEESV
Chain of EPH-B3 (P54753 34-998): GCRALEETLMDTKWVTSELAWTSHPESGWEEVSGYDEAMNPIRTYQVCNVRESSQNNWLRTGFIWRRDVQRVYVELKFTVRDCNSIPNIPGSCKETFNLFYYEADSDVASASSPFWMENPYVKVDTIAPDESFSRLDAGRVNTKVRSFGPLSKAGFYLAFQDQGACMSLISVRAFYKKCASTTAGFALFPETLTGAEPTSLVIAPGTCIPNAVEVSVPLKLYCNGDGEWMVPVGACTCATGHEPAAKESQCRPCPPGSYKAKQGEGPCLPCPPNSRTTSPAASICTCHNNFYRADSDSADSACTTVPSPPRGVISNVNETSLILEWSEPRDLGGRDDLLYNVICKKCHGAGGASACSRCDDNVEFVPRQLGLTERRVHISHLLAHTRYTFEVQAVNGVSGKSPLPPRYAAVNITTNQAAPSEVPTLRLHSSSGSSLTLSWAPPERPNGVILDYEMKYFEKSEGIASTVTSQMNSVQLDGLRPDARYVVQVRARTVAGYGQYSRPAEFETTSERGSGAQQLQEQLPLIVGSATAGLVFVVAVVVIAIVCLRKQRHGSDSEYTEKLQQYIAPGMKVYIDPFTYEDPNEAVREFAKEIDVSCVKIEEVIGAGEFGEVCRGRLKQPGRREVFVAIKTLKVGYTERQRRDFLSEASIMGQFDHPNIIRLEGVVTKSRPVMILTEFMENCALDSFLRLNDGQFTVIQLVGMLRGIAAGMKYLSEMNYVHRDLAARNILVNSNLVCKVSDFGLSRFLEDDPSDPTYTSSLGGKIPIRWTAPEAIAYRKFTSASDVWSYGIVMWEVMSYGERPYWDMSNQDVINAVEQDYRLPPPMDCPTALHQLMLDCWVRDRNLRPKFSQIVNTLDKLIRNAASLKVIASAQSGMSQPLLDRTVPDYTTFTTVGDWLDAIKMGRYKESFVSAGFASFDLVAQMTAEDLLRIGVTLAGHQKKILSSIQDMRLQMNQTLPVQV
Chain of JNK2 (P45984 whole entry): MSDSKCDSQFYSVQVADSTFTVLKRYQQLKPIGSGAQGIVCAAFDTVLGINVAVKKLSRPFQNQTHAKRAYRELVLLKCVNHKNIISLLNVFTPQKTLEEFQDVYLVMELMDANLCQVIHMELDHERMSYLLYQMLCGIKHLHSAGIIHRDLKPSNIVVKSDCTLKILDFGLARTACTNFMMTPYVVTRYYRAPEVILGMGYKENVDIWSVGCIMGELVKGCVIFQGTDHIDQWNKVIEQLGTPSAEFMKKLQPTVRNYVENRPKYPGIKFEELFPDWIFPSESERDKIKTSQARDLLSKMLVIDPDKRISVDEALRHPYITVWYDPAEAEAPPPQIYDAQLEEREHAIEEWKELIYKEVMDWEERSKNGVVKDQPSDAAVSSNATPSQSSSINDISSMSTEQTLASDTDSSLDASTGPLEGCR
Chain of PKD1 (Q15139 whole entry): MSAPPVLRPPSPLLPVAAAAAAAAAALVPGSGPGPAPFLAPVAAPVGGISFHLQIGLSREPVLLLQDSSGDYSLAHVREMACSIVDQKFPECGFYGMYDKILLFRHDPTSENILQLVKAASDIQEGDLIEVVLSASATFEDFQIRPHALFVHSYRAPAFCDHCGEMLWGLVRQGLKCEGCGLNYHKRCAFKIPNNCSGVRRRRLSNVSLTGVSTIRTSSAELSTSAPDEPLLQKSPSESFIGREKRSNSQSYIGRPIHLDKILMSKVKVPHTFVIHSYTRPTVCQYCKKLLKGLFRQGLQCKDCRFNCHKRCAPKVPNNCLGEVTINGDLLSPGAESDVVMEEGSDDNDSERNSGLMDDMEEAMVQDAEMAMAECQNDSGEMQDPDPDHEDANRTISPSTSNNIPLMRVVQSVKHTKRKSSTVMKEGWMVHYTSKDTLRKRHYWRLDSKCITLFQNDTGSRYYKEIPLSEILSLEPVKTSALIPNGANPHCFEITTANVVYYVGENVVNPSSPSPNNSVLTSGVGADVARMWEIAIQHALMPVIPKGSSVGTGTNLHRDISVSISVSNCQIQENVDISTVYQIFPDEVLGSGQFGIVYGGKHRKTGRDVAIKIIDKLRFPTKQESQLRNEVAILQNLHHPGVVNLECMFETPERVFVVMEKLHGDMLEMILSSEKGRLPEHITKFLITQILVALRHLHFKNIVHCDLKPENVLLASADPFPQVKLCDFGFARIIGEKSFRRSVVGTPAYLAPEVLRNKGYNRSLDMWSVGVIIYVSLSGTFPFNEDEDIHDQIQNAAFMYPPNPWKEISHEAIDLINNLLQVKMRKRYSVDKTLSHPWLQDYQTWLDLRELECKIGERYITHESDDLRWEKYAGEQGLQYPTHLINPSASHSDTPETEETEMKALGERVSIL
Chain of Aurora B (Q96GD4 whole entry): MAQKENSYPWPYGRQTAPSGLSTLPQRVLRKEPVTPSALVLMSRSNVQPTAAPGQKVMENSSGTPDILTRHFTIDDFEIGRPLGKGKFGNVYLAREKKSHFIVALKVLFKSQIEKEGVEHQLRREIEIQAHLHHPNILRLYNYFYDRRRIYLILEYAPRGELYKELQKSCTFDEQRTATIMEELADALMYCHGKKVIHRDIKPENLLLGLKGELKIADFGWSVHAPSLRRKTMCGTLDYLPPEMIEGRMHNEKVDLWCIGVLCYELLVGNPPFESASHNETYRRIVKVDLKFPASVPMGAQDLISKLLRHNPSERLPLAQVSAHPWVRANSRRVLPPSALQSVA

COc1cc(C2=C(c3c[nH]c4ccccc34)C(=O)NC2=O)cc(OC)c1OC [Compound 1, 3-(1H-Indol-3-yl)-4-(3,4,5-trimethoxyphenyl)-1H-pyrrole-2,5-dione]
residual activity of AMPK, mean percentage activity (AMPK): 78%
remaining activity at 0.1 µM (Aurora B): 84%
remaining activity at 0.1 µM (EPH-B3): 104%
remaining activity at 0.1 µM (ERK2): 94%
remaining activity at 0.1 µM (ERK8): 46%
remaining activity at 0.1 µM (GSK3b): 21%
remaining activity at 0.1 µM (HIPK2): 23%
remaining activity at 0.1 µM (JNK1): 96%
remaining activity at 0.1 µM (JNK2): 78%
remaining activity at 0.1 µM (Lck): 91%
remaining activity at 0.1 µM (MNK1): 80%
remaining activity at 0.1 µM (MSK1): 69%
remaining activity at 0.1 µM (MST2): 53%
remaining activity at 0.1 µM (MST4): 94%
remaining activity at 0.1 µM (PAK5): 105%
residual activity of PHK, mean percentage activity (PHK): 73%
remaining activity at 0.1 µM (PIM2): 115%
remaining activity at 0.1 µM (PIM3): 5%
remaining activity at 0.1 µM (PKA): 93%
remaining activity at 0.1 µM (PKC zeta): 102%
remaining activity at 0.1 µM (PKD1): 100%
remaining activity at 0.1 µM (PLK1): 79%
remaining activity at 0.1 µM (PRAK): 91%
remaining activity at 0.1 µM (PRK2): 84%
remaining activity at 0.1 µM (RSK1): 96%
remaining activity at 0.1 µM (S6K1): 65%
remaining activity at 0.1 µM (SYK): 85%
residual activity of VEG-FR, mean percentage activity (VEG-FR): 10%
remaining activity at 0.1 µM (YES1): 84%
remaining activity at 0.1 µM (p38g MAPK): 91%

COc1cc2c3c(c4c5ccccc5[nH]c4c2c(OC)c1OC)C(=O)NC3=O [Compound 3, 5,6,7-Trimethoxybenzo[a]pyrrolo[3,4-c]carbazole-1,3(2H,8H)-dione]
residual activity of AMPK, mean percentage activity (AMPK): 75%
remaining activity at 0.1 µM (Aurora B): 47%
remaining activity at 0.1 µM (EPH-B3): 133%
remaining activity at 0.1 µM (ERK2): 93%
remaining activity at 0.1 µM (ERK8): 11%
remaining activity at 0.1 µM (GSK3b): 5%
remaining activity at 0.1 µM (HIPK2): 7%
remaining activity at 0.1 µM (JNK1): 96%
remaining activity at 0.1 µM (JNK2): 93%
remaining activity at 0.1 µM (Lck): 91%
remaining activity at 0.1 µM (MNK1): 79%
remaining activity at 0.1 µM (MSK1): 55%
remaining activity at 0.1 µM (MST2): 24%
remaining activity at 0.1 µM (MST4): 69%
remaining activity at 0.1 µM (PAK5): 84%
residual activity of PHK, mean percentage activity (PHK): 41%
remaining activity at 0.1 µM (PIM2): 115%
remaining activity at 0.1 µM (PIM3): 4%
remaining activity at 0.1 µM (PKA): 90%
remaining activity at 0.1 µM (PKC zeta): 98%
remaining activity at 0.1 µM (PKD1): 60%
remaining activity at 0.1 µM (PLK1): 49%
remaining activity at 0.1 µM (PRAK): 85%
remaining activity at 0.1 µM (PRK2): 52%
remaining activity at 0.1 µM (RSK1): 51%
remaining activity at 0.1 µM (S6K1): 28%
remaining activity at 0.1 µM (SYK): 86%
residual activity of VEG-FR, mean percentage activity (VEG-FR): 37%
remaining activity at 0.1 µM (YES1): 88%
remaining activity at 0.1 µM (p38g MAPK): 86%
